The text below walks through data of article PMC7731220, “Pharmacophore Modeling and 3D-QSAR Study of Indole and Isatin Derivatives as Antiamyloidogenic Agents Targeting Alzheimer’s Disease” (Molecules, 2020).

Where only a bound is given, the exact number is not on record here.

For data set [1], the target named is Aβ40 (Homo sapiens, UniProt P05067). In words: Inhibition of Aβ40 self-aggregation (thioflavin T fluorescence, 2% HFIP). The settings on record: for inhibition at 100 µM: read-out: Aβ40 Aggregation Inhibition % at 100 μM.
Chain of Aβ40 (P05067 672-711 limits assumed): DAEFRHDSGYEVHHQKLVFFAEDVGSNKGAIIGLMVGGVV
Procedure: All the newly prepared compounds were tested in a routine in vitro assay of inhibition of Aβ40 self-aggregation [25].
(§1) All assays were performed in 96-well plates (Greiner Bio-One, Kremsmünster, Austria) using an Infinite M1000 Pro plate reader (Tecan, Cernusco s.N., Italy). Inhibition data were obtained as mean ± SD (for single concentration points) or mean ± SEM from three independent experiments (for IC50s), using Prism (GraphPad Prism version 5.00 for Windows, GraphPad Software, San Diego, CA, USA).
Assay of aggregation of Aβ40 (EzBiolab, Carmel, IN, USA) was performed as described [25], using 2% of 1,1,1,3,3,3-hexafluoro-2-propanol as aggregation enhancer and spectrofluorimetric detection of thioflavin T fluorescence as the probe of amyloid aggregation.
Data set [2] deals with T1, human recombinant monoamine oxidase A (Homo sapiens, UniProt P21397).
T1 construct: purchased Sigma Aldrich; host or cells: baculovirus infected insect cells (microsomes)
T1 sequence (P21397 1-527): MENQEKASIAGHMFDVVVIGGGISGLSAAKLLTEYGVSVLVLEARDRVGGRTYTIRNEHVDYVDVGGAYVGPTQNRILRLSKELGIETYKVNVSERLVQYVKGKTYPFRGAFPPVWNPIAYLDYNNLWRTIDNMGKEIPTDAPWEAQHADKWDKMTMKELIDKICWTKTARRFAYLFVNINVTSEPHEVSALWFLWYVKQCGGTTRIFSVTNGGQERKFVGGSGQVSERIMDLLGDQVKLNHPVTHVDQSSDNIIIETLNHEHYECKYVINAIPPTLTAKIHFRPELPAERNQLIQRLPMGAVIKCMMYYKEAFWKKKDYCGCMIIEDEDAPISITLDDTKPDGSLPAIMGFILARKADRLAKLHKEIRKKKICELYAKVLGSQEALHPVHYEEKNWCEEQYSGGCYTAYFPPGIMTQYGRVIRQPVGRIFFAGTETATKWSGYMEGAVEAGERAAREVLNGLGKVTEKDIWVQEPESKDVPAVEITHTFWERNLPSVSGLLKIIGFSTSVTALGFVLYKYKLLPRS
Nature of the data set: Inhibition of monoamine oxidase A (kynuramine). It is filed as biochemical. The settings on record: for inhibition at 10 µM: read-out: hMAO A % Inhib. at 10 μM.
Procedure: as §1
(§2) Inhibition of human recombinant monoamine oxidases A (250 U/mg) and B (59 U/mg; microsomes from baculovirus infected insect cells; Sigma Aldrich) was determined as already described [48], measuring the fluorescence of 4-hydroxyquinoline produced by the oxidative deamination of substrate kynuramine.

Data set [3] addresses T2, tau protein (Homo sapiens, UniProt P10636).
T2 construct: inclusions bodies (IBs) formed by tau full-length protein in bacteria; expressed in transfected cells; host or cells: Escherichia coli BL21 (DE3), plasmids pTARA and pRKT42
Nature of the data set: Tau aggregation inhibition assay in bacterial cells (thioflavin S fluorescence). It is filed as cell-based, Escherichia coli BL21 (DE3). The settings on record: for inhibition at 10 µM: cell-based assay. From the text: The deposition of aggregates of hyperphosphorylated tau protein constitutes the intracellular neurofibrillary tangles, a major histological evidence of AD. The role of tau hyperphosphorylation and aggregation in AD has established both of them as a target for therapeutic intervention, although only N,N,N′,N′-tetramethyl-10H-phenothiazine-3,7-diaminium (TRX0237, leucomethyl-thioninium), the reduced form of methylene blue dye, acting as an inhibitor of tau aggregation, has reached the clinical phase III [26]. In recent years, some of us developed an efficient cell-based assay of tau aggregation, a simple and inexpensive method that provides a straightforward assay to evaluate the putative anti-aggregation capacity of small molecules. This method relies on the use of bacteria overexpressing amyloid-prone proteins to monitor the amyloid aggregation, thus constituting a physiologically relevant model. In particular, it exploits amyloid properties of the inclusions bodies (IBs) formed by tau full-length protein in bacteria stained by thioflavin S (ThS), a specific amyloid dye, to address the bacterial amyloid aggregation and the effect of anti-amyloid compounds in this polymerization process.
Escherichia coli competent cells BL21 (DE3) were transformed with pTARA containing the RNA-polymerase gen of T7 phage (T7RP) under the control of the promoter PBAD and pRKT42 vector encoding four repeats of tau protein in two inserts. Because of the addition of the initiation codon ATG in front of gene, the over-expressed protein contains an additional methionine residue at its N terminus. Tau anti-aggregating activities of the target compounds were assessed in E. coli cells, as previously described. M9 minimal medium (10 mL) containing 0.5% of glucose, 100 μg/mL of ampicillin and 12.5 μg/mL of chloramphenicol was inoculated with a colony of BL21 (DE3) cells bearing the plasmids. To fresh M9 minimal medium containing 0.5% of glucose, 50 μg/mL of ampicillin, 12.5 μg/mL of chloramphenicol, and 250 µM of ThS, the volume of overnight culture necessary to get a 1:500 dilution was added. The cultures were grown at 37 °C and 250 rpm overnight until cell density reached OD600 = 0.6. A volume of 980 μL of the cultures was transferred into 1.5 mL Eppendorf tubes that contained 10 μL of a solution of the target compound in DMSO and 10 μL of arabinose at 25%, leading to a final inhibitor concentration of 10 μM. The resulting cultures were grown at 37 °C and 1400 rpm with a Thermomixer (Eppendorf, Hamburg, Germany) overnight. The same amount of DMSO without the target compound was added to the sample as a negative control (maximal amount of tau), whereas non-induced samples (in the absence of arabinose) were prepared as positive controls (absence of tau), and to assess the potential intrinsic toxicity of the target compounds. In addition, the absorbance at 600 nm of these samples was assessed to confirm the correct bacterial growth, discarding potential intrinsic toxicity of compounds. To determine the IC50 values, the same protocol was followed but only modifying the initial concentration of compounds. In order to use different final concentrations of compound, we performed a dilutions banc from a stock solution of 100 mM in […].
ThS fluorescence and absorbance were tracked using a DTX 800 plate reader Multimode Detector equipped with a Multimode Analysis Software (Beckman-Coulter, Indianapolis, IN, USA). Filters of 430/35 and 485/20 nm were used for the excitation and emission wavelengths, respectively. 535/25 nm filters were also used for the absorbance determination. It should be stressed that ThS fluorescence normalization was carried out considering as 100% the ThS fluorescence of the bacterial cells expressing tau in the absence of compounds and 0% the ThS fluorescence of the bacterial cells non-expressing tau.

Data set [4] deals with T3, human recombinant monoamine oxidase B (Homo sapiens, UniProt P27338).
T3 construct: purchased Sigma Aldrich; host or cells: baculovirus infected insect cells (microsomes)
T3 sequence (P27338 1-520): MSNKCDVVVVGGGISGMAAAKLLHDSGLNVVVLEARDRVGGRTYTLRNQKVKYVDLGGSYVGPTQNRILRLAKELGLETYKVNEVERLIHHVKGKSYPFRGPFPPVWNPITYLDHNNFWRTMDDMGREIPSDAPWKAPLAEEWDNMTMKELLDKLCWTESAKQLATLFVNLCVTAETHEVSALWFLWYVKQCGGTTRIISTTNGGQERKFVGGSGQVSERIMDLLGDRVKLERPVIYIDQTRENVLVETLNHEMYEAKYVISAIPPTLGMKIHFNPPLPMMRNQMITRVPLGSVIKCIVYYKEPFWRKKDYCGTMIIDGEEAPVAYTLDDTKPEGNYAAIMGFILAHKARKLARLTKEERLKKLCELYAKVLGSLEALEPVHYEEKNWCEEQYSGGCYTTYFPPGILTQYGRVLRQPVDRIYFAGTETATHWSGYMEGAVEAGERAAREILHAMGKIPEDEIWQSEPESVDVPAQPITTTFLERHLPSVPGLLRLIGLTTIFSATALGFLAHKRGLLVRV
In words: Inhibition of monoamine oxidase B (kynuramine). It is filed as biochemical. The settings on record: for IC50: read-out: hMAO B IC50.
Procedure: as §1, §2

Data set [5] deals with T4, human recombinant AChE (Homo sapiens, UniProt P22303).
T4 construct: purchased Sigma Aldrich
T4 sequence (P22303 32-614): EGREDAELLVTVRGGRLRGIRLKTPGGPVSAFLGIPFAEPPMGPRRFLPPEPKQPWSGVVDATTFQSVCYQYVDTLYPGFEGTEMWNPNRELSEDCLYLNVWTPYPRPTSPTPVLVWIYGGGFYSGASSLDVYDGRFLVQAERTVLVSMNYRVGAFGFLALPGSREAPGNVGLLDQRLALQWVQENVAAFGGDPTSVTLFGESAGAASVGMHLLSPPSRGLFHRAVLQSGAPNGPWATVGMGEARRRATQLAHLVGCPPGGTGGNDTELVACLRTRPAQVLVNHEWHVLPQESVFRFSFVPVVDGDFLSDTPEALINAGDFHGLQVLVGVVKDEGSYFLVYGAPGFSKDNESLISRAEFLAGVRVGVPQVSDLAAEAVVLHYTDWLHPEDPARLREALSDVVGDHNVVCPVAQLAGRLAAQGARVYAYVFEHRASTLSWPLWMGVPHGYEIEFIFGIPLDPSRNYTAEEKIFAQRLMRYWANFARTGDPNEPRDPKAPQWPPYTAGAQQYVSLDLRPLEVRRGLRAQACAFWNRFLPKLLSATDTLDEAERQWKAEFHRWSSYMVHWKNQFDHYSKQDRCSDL
Nature of the data set: biochemical. The settings on record: read-out: hAChE % Inhib. at 10 μM.
Procedure: as §1

For orientation: melting point means the temperature of the solid-liquid transition. One may read the IC50 as the midpoint of a concentration-inhibition curve.

T2 sequence (P10636 other isoform, or with tags, fused parts or gaps): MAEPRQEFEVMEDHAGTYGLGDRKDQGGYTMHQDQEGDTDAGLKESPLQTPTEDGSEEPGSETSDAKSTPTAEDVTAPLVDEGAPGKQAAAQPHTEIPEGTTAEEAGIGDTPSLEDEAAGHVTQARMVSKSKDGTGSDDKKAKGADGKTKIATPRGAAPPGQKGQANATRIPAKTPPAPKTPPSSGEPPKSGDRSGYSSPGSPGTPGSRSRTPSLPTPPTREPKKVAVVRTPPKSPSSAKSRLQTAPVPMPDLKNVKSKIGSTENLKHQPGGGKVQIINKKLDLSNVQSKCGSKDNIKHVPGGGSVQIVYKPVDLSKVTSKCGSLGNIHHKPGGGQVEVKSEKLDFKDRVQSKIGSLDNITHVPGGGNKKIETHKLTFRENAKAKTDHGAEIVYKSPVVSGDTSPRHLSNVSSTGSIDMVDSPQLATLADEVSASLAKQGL

In turn, `N/N=C1\C(=O)Nc2ccc([N+](=O)[O-])cc21` [Compound 3, (Z)-3-Hydrazineylidene-5-nitroindolin-2-one] showed a melting point of 217 to 219 °C. The inhibition at 100 µM in data set [1] was 11 ± 3%.
Turning to `COc1ccc2c(c1)C(=NNC(=O)c1ccccc1)C(=O)N2` [Compound 26, N′-(5-Methoxy-2-oxoindolin-3-ylidene)benzhydrazide], the melting point is above 250 °C. Further, in data set [1], the inhibition at 100 µM was found to be 12 ± 5%.
For `O=C1C(=Cc2ccc(O)cc2)Nc2ccccc21` [Compound 27, 2-(4-Hydroxybenzylidene)indolin-3-one], the melting point is above 250 °C. Also, the inhibition at 100 µM in data set [1] came to 69 ± 1%.
Turning to `CN1C(=O)C(=NNc2ccc(OCc3ccccc3)cc2)c2ccccc21` [Compound 9, 3-(2-(4-(Benzyloxy)phenyl)hydrazineylidene)-1-methylindolin-2-one], the inhibition at 10 µM in data set [2] stood at 15 ± 3%; in data set [3], 20 ± 2%; in data set [5], 48 ± 2%. Further, the IC50 in data set [4] came to 4 ± 0.4 µM; in data set [1], 0.95 ± 0.04 µM.
Take `O=C1C(c2c(O)nc3ccccc3c2O)=Nc2ccccc21` [Compound 43, 2-(2,4-Dihydroxyquinolin-3-yl)-3H-indol-3-one]: the melting point was in the range of 90 to 92 °C. Also, in data set [1], the inhibition at 100 µM was 17 ± 3%.
With `CN1C(=O)C(=NNc2cccc(OCc3ccccc3)c2)c2ccccc21` [Compound 7, 3-(2-(3-(Benzyloxy)phenyl)hydrazineylidene)-1-methylindolin-2-one], the inhibition at 10 µM amounted to 29 ± 3% in data set [2], 19 ± 2% in data set [3], 41 ± 1% in data set [4] (read-out: hMAO B % Inhib. at 10 μM) and 48 ± 3% in data set [5]. This compound also had an IC50 in data set [1] of 2 ± 0.3 µM.
For the compound `O=C1Nc2ccccc2C1=NNc1ccccc1` [Compound 5, isatin 3-phenylhydrazone], the “selectivity for MAO A over MAO B” value in data set [2] (MAO A over MAO B) is 7 fold. For the same compound, the IC50 in data set [2] (read-out: hMAO A IC50) is 0.52 ± 0.04 µM; in data set [3], 4.6 ± 0.7 µM; in data set [4], 3.6 ± 0.7 µM; in data set [1], 22 ± 2 µM. For the same compound, in data set [5], the inhibition at 10 µM came to 37 ± 1%.
Consider `CC(C)c1ccc(NN=C2NC(=O)c3ccccc32)cc1` [Compound 38, 3-(2-(4-Isopropylphenyl)hydrazineylidene)isoindolin-1-one], for which the melting point lay in the range of 186 to 187 °C. The inhibition at 100 µM in data set [1] was 49 ± 5%.
